Assay results from patent US10399968B2, “Hydroxyalkyl thiadiazole derivatives” (Daiichi Sankyo Company, Limited, priority 2015, dated 2019).
Converted amounts (≈) assume the structure as drawn. Read-outs that look alike come from different tables or passages of the source.

Columns and labels:
[1] = Oral bioavailability (BA) in monkeys; format: in vivo, Macaca fascicularis; settings: male, cynomolgus monkey, blood, 1 mg/kg oral vs jugular vein
Procedure: To male Macaca fascicularis (3 or 4 year-old) fasted overnight, a solution of the test compound Captisol® was administered into the jugular vein (3 animals) and a solution of Lutrol® F68 was orally administered (3 animals). The dose of both test compounds was 1 mg/kg body weight of the monkey. The amount of Captisol® used was 0.18 mg/kg body weight of the monkey. The amount of Lutrol® F68 used was 0.02 mg/kg body weight of the monkey. The BA value was calculated by the formula below using the integration value (AUCiv(0-∞)) of the blood concentration extrapolated from time 0 to infinity after administration of both test compounds. BA(%)=[[(AUCpo(0-∞))/(dose po)]/[(AUCiv(0-∞))/(dose iv)]]×100 The greater a BA value of the compound shown, the higher the oral bioavailability is.

Staphylococcus aureus = test: Neutropenic mouse thigh or calf muscle infection model; format: in vivo; settings: neutropenic mice, compared with linezolid
Text: After culture in broth medium (i) suitable diluent of a bacterial suspension of the Staphylococcus aureus strain, or (ii) equivalent mixture of suitable diluent of a bacterial suspension of the Enterococcus faecium strain and a 10% mucin suspension were used as the inoculum. The bacterial suspension was inoculated under anesthesia with a ketamine-xylazine mixture into the thigh or calf muscle of Swiss albino mice or ICR mice (4- to 6-week-old) compromised by the cyclophosphamide administration. The drug was administered to the mice 1 to 8 times at an interval of 3 to 24 hours. The number of bacteria in the thigh or calf muscle was counted for the non-treated group immediately before initial administration of the drug (pre-control), for the non-treated group (post-control) and for the drug-administered group on the next day of administration of the drug and infection. A change in the number of bacteria in the thigh or calf muscle was used as an index of therapeutic effect.

[2] = test system: Streptococcus pneumoniae ATCC 49619; test: Susceptibility of bacteria, broth microdilution MIC; format: cell-based; settings: ATCC49619
Procedure: (§1) The antibacterial activity of the compounds of the present invention was tested by the broth microdilution method. The assay was carried out according to the CLSI guidelines for managing the procedures of susceptibility tests: “M7-A7 Methods for Dilution Antimicrobial Susceptibility Tests for Bacteria That Grow Aerobically; Approved Standard-Seventh Edition (2006)”. Test strains were grown on appropriate agar plates overnight. A broth containing the test compound diluted serially 2-fold and diluents were dispensed at 100 μL to each well of a 96-well microplate. As a growth control, a well with a broth not containing the test compound was also prepared. Colonies grown on the plates were suspended in saline, adjusted to 0.5 McFarland (OD625=0.08 to 0.10) using a colorimeter, and then diluted 10-fold with saline. The bacterial suspension was inoculated at 4 μL into each well of the microplate using a bacterial suspension inoculation apparatus. The inoculated microplate was incubated at 35° C. overnight (about 20 hours). The growth condition was observed by the naked eye, and the minimum concentration to inhibit bacterial proliferation was defined as a minimum inhibitory concentration (MIC).

E. faecium ATCC 29212 = test: as above; format: cell-based; settings: Enterococcus faecium, ATCC29212
Procedure: as §1

[3] = test system: Haemophilus influenzae ATCC 49247; test: as above; format: cell-based; settings: ATCC49247
Procedure: as §1

[4] = test system: Clostridium difficile ATCC 43255; test: Susceptibility of Clostridium difficile, agar dilution MIC; format: cell-based; settings: Clostridioides difficile, ATCC43255, anaerobic
Procedure, shortened: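 Agar dilution per CLSI M11-A8 on supplemented Brucella agar containing compound dilutions. Inoculum from 0.5 McFarland suspension, 1-2 μL spots; anaerobic incubation at 36° C for 42 to 48 hours. MIC read by eye as the concentration giving marked growth reduction versus compound-free anaerobic control plates.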

[5] = test system: Clostridium difficile 2009155, a NAP1/027 strain; test: Hamster CDI model; format: in vivo; settings: 0.3 mg/kg/day by oral route, 5 days
Procedure: The in vivo efficacy of test compounds were evaluated in a hamster CDI model caused by Clostridium difficile 2009155, a NAP1/027 strain. Syrine hamsters (6-8-weeks old) were primed with a single subcutaneous injection of clindamycin (30 mg/kg) 1-5 days prior to infection. Hamsters were infected by oral gavage with 1 ml of spore suspension ([…]) prepared in PBS. The drug was administered to the hamsters 6 hours post infection by oral or subcutaneous route at an interval of 24 hours for 5 days. The death and survival of the non-treated group and the drug-administered group were recorded once daily for 35 days.

[6] = Solubility in water (JP1 / JP2 fluids); format: physicochemical; settings: thermodynamic from solid
Procedure, shortened: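 DMSO stock (10 mmol/L) dried down, residue shaken 30 min in JP1 or JP2 fluid after 1 min sonication, then held 1 h dark at room temperature. Filtrate diluted and quantified by UPLC against 100 and 5 μmol/L standards.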

[7] = Japanese Pharmacopeia First Fluid (JP1), pH 1.2, simulated gastric fluid, read-out: Solubility JP1
[8] = Japanese Pharmacopeia Second Fluid (JP2), pH 6.8, aqueous buffer, read-out: Solubility JP2

SMILES	bioavailability [1] [%]	therapeutic effect against Staphylococcus aureus (number of bacteria in thigh or calf muscle) (Staphylococcus aureus)	MIC [2] [µg/mL]	MIC (E. faecium ATCC 29212) [µg/mL]	MIC [3] [µg/mL]	MIC [4] [µg/mL]	survival on day 35 [5] [%]	solubility at 30 min [6, 7] [µg/mL]	solubility at 30 min [6, 8] [µg/mL]
CCc1[nH]c(C(=O)N[C@@H]2CCN(c3nnc(C(C)(C)O)s3)C[C@@H]2OC)nc1Cl [Compound No. 2, 4-Chloro-5-ethyl-N-{(3S,4R)-1-[5-(2-hydroxypropan-2-yl)-1,3,4-thiadiazol-2-yl]-3-methoxypiperidin-4-yl}-1H-imidazole-2-carboxamide]	85	equivalent to or higher than linezolid	0.25 (≈ 0.583 µM)	0.25 (≈ 0.583 µM)	0.5 (≈ 1.17 µM)	0.06 (≈ 0.14 µM)	100	706 (≈ 1650 µM)	256 (≈ 597 µM)
CCc1[nH]c(C(=O)N[C@@H]2CCN(c3nnc([C@H](C)O)s3)C[C@@H]2OC)nc1Cl (single isomer, unassigned) [Compound No. 5]	100	equivalent to or higher than linezolid	0.25 (≈ 0.603 µM)	0.25 (≈ 0.603 µM)	1 (≈ 2.41 µM)	0.125 (≈ 0.301 µM)	100	680 (≈ 1640 µM)	359 (≈ 865 µM)
